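Tested at 5 concentrations; 48 h exposure; 96-well plates; endpoints linearly interpolated, else capped at highest concentration. GI50: concentration for 50% inhibition of growth.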 Activity calls are given as the source filed them. Rule as the data show it: active = GI50 up to about 1.1 µM and inactive = higher.
Assays:
Assay in all cases: growth of human tumour cells (NCI), 48 h
[1] = system: SK-MEL-28
[2] = system: HT-29
[3] = system: HL-60
[4] = system: CCRF-CEM
[5] = system: SK-OV-3
[6] = system: ACHN
[7] = system: OVCAR-4
[8] = system: SNB-19
[9] = system: MDA-MB-435
[10] = system: PC-3
[11] = system: U-251
[12] = system: M14
[13] = system: T47D
[14] = system: NCI-H23
[15] = system: SK-MEL-5
[16] = system: EKVX
[17] = system: A549
[18] = system: MDA-N
[19] = system: A498
[20] = system: 786-0

Row | SMILES | GI50 [1] | GI50 [2] | GI50 [3] | GI50 [4] | GI50 [5] | GI50 [6] | GI50 [7] | GI50 [8] | GI50 [9] | GI50 [10] | GI50 [11] | GI50 [12] | GI50 [13] | GI50 [14] | GI50 [15] | GI50 [16] | GI50 [17] | GI50 [18] | GI50 [19] | GI50 [20]
1 | O=C1Nc2ccccc2/C1=c1\[nH]c(=O)/c(=C\c2ccc(OCc3ccccc3)cn2)[nH]c1=O | > 100 µM (inactive) | > 100 µM (inactive) | 49.4 µM (inactive) | 39.5 µM (inactive) | 32.3 µM (inactive) | 33.7 µM (inactive) | 72.4 µM (inactive) | 31.4 µM (inactive) | 44.1 µM (inactive) | > 100 µM (inactive) | 17.9 µM (inactive) | 56.6 µM (inactive) | > 100 µM (inactive) | 30.7 µM (inactive) | 64.6 µM (inactive) | 86.7 µM (inactive) | > 100 µM (inactive) | 83.2 µM (inactive) | 27.3 µM (inactive) | 18.8 µM (inactive)
2 | CC(=O)O[C@H]1CC[C@@]2(C)C(=CC[C@@H]3[C@@H]2CC[C@]2(C)c4nc(Cl)ccc4C[C@@H]32)C1 | 45.6 µM (inactive) | 36.8 µM (inactive) | 33.8 µM (inactive) | 20.6 µM (inactive) | > 100 µM (inactive) | 33.7 µM (inactive) | 38.8 µM (inactive) | 93.8 µM (inactive) | 41.4 µM (inactive) | 50 µM (inactive) | 97.1 µM (inactive) | 60 µM (inactive) | 44.6 µM (inactive) | 0.867 µM (active) | 30.8 µM (inactive) | 25.2 µM (inactive) | 52 µM (inactive) | 29.3 µM (inactive) | 87.3 µM (inactive) | 32 µM (inactive)
3 | Cc1cc[n+]2c(c1)-c1cc(C)cc[n+]1CC2 | > 100 µM (inactive) | 34.7 µM (inactive) | > 100 µM (inactive) | > 22.7 µM (inactive) | > 100 µM (inactive) | > 100 µM (inactive) | > 100 µM (inactive) | > 100 µM (inactive) | > 100 µM (inactive) | > 76.7 µM (inactive) | > 100 µM (inactive) | > 100 µM (inactive) | > 100 µM (inactive) | 84.5 µM (inactive) | > 100 µM (inactive) | > 100 µM (inactive) | > 100 µM (inactive) | > 100 µM (inactive) | > 100 µM (inactive) | > 100 µM (inactive)
4 | O=C(NCCCCCN1CCC2(CCCCC2)CC1)C(C1CCCCC1)C1CCCCC1 | 1.83 µM (inactive) | 1.97 µM (inactive) | 1.56 µM (inactive) | 2.99 µM (inactive) | 5.15 µM (inactive) | 3.67 µM (inactive) | 3.59 µM (inactive) | 5.73 µM (inactive) | 1.85 µM (inactive) | 2.77 µM (inactive) | 4.34 µM (inactive) | 1.68 µM (inactive) | 2.51 µM (inactive) | 3.1 µM (inactive) | 1.61 µM (inactive) | 3.6 µM (inactive) | 5.94 µM (inactive) | 1.84 µM (inactive) | 4.26 µM (inactive) | 5.08 µM (inactive)
5 | C=CCOCn1cnc2c(=O)[nH]c(N)nc21 | > 100 µM (inactive) |  | > 100 µM (inactive) | > 100 µM (inactive) | > 100 µM (inactive) | > 100 µM (inactive) | > 100 µM (inactive) | > 100 µM (inactive) | > 100 µM (inactive) | > 100 µM (inactive) | > 100 µM (inactive) | > 100 µM (inactive) | > 100 µM (inactive) | > 100 µM (inactive) | > 100 µM (inactive) | > 100 µM (inactive) | > 100 µM (inactive) | > 100 µM (inactive) | > 100 µM (inactive) | > 100 µM (inactive)
6 | O=C1C2C3C=CC(C2C(=O)N1CN1CCOCC1)C1C2C(=O)N(CN4CCOCC4)C(=O)C2C31 (configuration not stated) | > 48.6 µM (inactive) | > 60 µM (inactive) | > 40.6 µM (inactive) | 18.7 µM (inactive) | > 71.4 µM (inactive) | > 53.3 µM (inactive) | > 43.9 µM (inactive) | > 48 µM (inactive) | > 100 µM (inactive) | > 100 µM (inactive) | > 45.3 µM (inactive) | > 42.9 µM (inactive) | > 100 µM (inactive) | > 47.9 µM (inactive) | > 43.2 µM (inactive) | 97.1 µM (inactive) | > 56 µM (inactive) | > 100 µM (inactive) | > 57.4 µM (inactive) | > 42.8 µM (inactive)
7 | COc1ccc(C2OC(=O)c3ccc4ccccc4c32)c(C)c1 (configuration not stated) | 11.9 µM (inactive) | 3.78 µM (inactive) | 3.69 µM (inactive) | 22.4 µM (inactive) | 7.82 µM (inactive) | 20.6 µM (inactive) | 19.6 µM (inactive) | 14.7 µM (inactive) | 2.36 µM (inactive) | 9.08 µM (inactive) | 4.86 µM (inactive) | 6.73 µM (inactive) | 7.6 µM (inactive) | 9.53 µM (inactive) | 3.54 µM (inactive) | 18.8 µM (inactive) | 6.31 µM (inactive) | 2 µM (inactive) | 7.41 µM (inactive) | 12.7 µM (inactive)
8 | CC(C)Cn1cnc2c(SCc3ccccn3)nc(N)nc21 | > 100 µM (inactive) | > 100 µM (inactive) | > 100 µM (inactive) | > 100 µM (inactive) | > 100 µM (inactive) | > 100 µM (inactive) | > 100 µM (inactive) | > 100 µM (inactive) | > 100 µM (inactive) | > 100 µM (inactive) | > 100 µM (inactive) | > 100 µM (inactive) | 80.7 µM (inactive) | > 100 µM (inactive) | > 100 µM (inactive) | > 100 µM (inactive) | > 100 µM (inactive) | > 100 µM (inactive) | > 100 µM (inactive) | > 100 µM (inactive)
9 | c1ccc2c(-c3ccnc(-c4c[nH]c5ccccc45)n3)c[nH]c2c1 | 6.9 µM (inactive) | 2.7 µM (inactive) | 2.29 µM (inactive) | 1.51 µM (inactive) | 10.7 µM (inactive) | 3.13 µM (inactive) | 8.69 µM (inactive) | 4.81 µM (inactive) | 4.52 µM (inactive) | 2.72 µM (inactive) | 3.86 µM (inactive) | 1.99 µM (inactive) | 3.85 µM (inactive) |  | 3.27 µM (inactive) | 6.4 µM (inactive) | 3.27 µM (inactive) | 2.78 µM (inactive) | 2.23 µM (inactive) | 2.12 µM (inactive)
10 | O=C(C(Cl)=C(N1CCOCC1)N1CCOCC1)C(Cl)Cl | > 100 µM (inactive) | > 100 µM (inactive) | > 100 µM (inactive) | 56.9 µM (inactive) | > 100 µM (inactive) | > 100 µM (inactive) | > 100 µM (inactive) | > 100 µM (inactive) | > 100 µM (inactive) | > 100 µM (inactive) |  | > 100 µM (inactive) | > 100 µM (inactive) | > 100 µM (inactive) | > 100 µM (inactive) | > 100 µM (inactive) | > 100 µM (inactive) | > 100 µM (inactive) | > 100 µM (inactive) | > 100 µM (inactive)

Source: ChEMBL document CHEMBL1201862, “PubChem BioAssay data set” (2004)
